Assay results: patent EP2181708A1, “Use of Valproate for reducing CHOP levels, particularly in a mammal having SCI” (Universitat Autonoma de Barcelona, priority 2008, dated 2010)

What was measured:
Format in all cases: in vivo, Sprague-Dawley rats
ATF4 = assay: Western blot of ATF4 in spinal cord after contusion SCI; conditions: VPA-treated injured spinal cords compared with vehicle-treated ones
Method: (§1) Adult females Sprague-Dawley rats aged 11 weeks (220-250 g) were anesthetized with pentobarbital (40 mg/kg i.p.). When unresponsive, the vertebral column was exposed and a laminectomy carried out at T8-T9 levels. Rostral T7 and caudal T10 vertebral bodies were clamped with Adson stabilizing forceps, and carefully adjusted to level the spinal cord in the horizontal plane. A contusion injury was performed using the Infinite Horizon impactor device (Precision Scientific Instruments, Lexington, KY). The stainless steel impounder tip was placed at 3-4 mm above the exposed spinal cord, and then a fast impact produced applying forces of 150 or 250 kilodynes (KDyn) to the exposed spinal cord. The wound was sutured with 5-0 silk thread in the muscular plane and the skin was closed with small clips and disinfected with povidone iodine solution. Sham-operated animals received the same surgical procedure but sustained no impact injury; the spinal cord was left exposed for 5 min. […]
Rats were re-anesthetised and decapitated at 3 dpo for sample preparation. […] After clearance, protein concentration was measured by the BCA method assay (BCA Protein Assay kit, Pierce). […] The membrane was visualized by enhanced chemiluminiscence (ECL) method and the images analyzed with Gene Snap and Gene Tools software, and Gene Genome apparatus (Syngene). […]

ventral horn motoneurons = assay: Ventral horn neuron and motoneuron analysis (cresyl violet, NeuN) after SCI
Method: as §1, with “min. The animals were maintained in a warm environment until full recovery, and received preventive antibiotic (amoxicyline) and analgesic (buprenorphine) treatment. All animals were kept under standard conditions of light and temperature and fed with food and water ad libitum. The procedures involving animals were approved by the Ethics Committee of our institution, and followed the European Communities Council Directive 86/609/EEC.” for “min.”
Motoneurons were identified by their localization in the lateral ventral horn of spinal cord sections stained with cresyl violet and were counted following a method published elsewhere (Grossman et al, 2001) by size and morphological strict criteria. […] Only motoneurons with diameter larger than one square, i.e. ranging from 30 to 70 (m, and with a prominent nucleolus and being polygonal in shape were counted. The mean number of motoneurons per section was calculated. […]

[1] = system: oligodendrocytes, astrocytes; assay: Immunohistochemistry of glia (CC1/APC oligodendrocytes, GFAP astrocytes) after SCI
Method: as §1, with “min. The animals were maintained in a warm environment until full recovery, and received preventive antibiotic (amoxicyline) and analgesic (buprenorphine) treatment. All animals were kept under standard conditions of light and temperature and fed with food and water ad libitum.” for “min.”

CCCC(CCC)C(=O)O [VPA, 2-propylpentanoic acid]
levels of ATF4 (ATF4): significantly higher levels | lesions in the sections distal to the epicenter (ventral horn motoneurons; 35 days, vs saline): fewer lesions | length of spinal cord devoid of motoneurons (ventral horn motoneurons; cresyl violet sections, especially caudal side, did not reach statistical significance): A reduction | number of NeuN neurons (ventral horn motoneurons; ventral horn, distal to the epicenter): more abundant | total GFAP immunoreactivity in astrocytes ([1]; 35 dpo): no significant alterations | proportion of oligodendrocytes ([1]; CC1 antibody, 1 and 2 mm caudal to the epicentre, vs vehicle): markedly increased
